The values below come from patent publication US11066629B2, “Lipid metabolism-promoting composition including isoxanthohumol” (SUNTORY HOLDINGS LIMITED, priority 2016, dated 2021).

For one test, the system named is Ucp1 gene. The test is described as follows: Gene expression in brown adipose tissue by quantitative PCR, high-fat diet model. It is filed as in vivo, mice (C57BL/6J). The following applies: isoxanthohumol 30 or 60 mg/kg/day oral, 14 days. From the text: (§1) Using the high-fat diet model, the effect of isoxanthohumol intake on expression of a gene related to fat burning was studied by the following procedure.
(§2) Thirty-two mice (C57BL/6J, male, 8 weeks of age, CLEA Japan, Inc.) were purchased and acclimatized for about one week. Then, the mice were divided into groups (n=8 in each group) in the group structure shown in Table 2 by the stratified continuous randomization method based on body weight. […] In Table 2, “Regular diet” is control diet “D12450J” (Research Diets), and “60 kcal % High-fat diet” is very high-fat diet “D12492” (Research Diets). Isoxanthohumol as the test substance was the standard sample (purity of 95% or higher) obtained in Preparation Example 1. […]
(§3) The test period was 14 days. […] The amount of the test substance and the volume of the solution were calculated based on the latest body weight on the administration date. […]
(§4) Using the extracted liver and brown adipose tissue, the effect of isoxanthohumol intake on expression of multiple genes related to lipid metabolism was studied. […] Then, cDNAs were synthesized using High-Capacity cDNA Reverse Transcription Kit (product name, Life Technologies Corporation), and the expression levels of genes shown in Table 3 were examined by quantitative PCR (TaqMan probe method) using Fast Universal PCR Master Mix (product name, Life Technologies Corporation). […]

Another test deals with Pgc-1α gene. The test is described as above. It is filed as in vivo, mice (C57BL/6J). As to conditions: isoxanthohumol 30 or 60 mg/kg/day oral, 14 days.
Text: as §1, §2, §3, §4

Regarding `COc1cc(O)c(CC=C(C)C)c2c1C(=O)CC(c1ccc(O)cc1)O2` (centres unmarked) [isoxanthohumol], in the test on Ucp1 gene, the “expression level of Ucp1 gene in brown adipose tissue” value was “increase in expression level”. Also, the “Pgc-1α gene expression in the brown adipose tissue” value in the test on Pgc-1α gene is on record as “significant increase”.
